Measured values as given in article PMC10761119, “Phosphorylation-state dependent intraneuronal sorting of Aβ differentially impairs autophagy and the endo-lysosomal system” (Autophagy, 2023).

Assays:
SH-SY5Y cells = experiment: Immunocytochemistry colocalization of Aβ with LC3 and LAMP2; assay type: cell-based, human; conditions: Aβ 1 µM, 24 h, n = 6, N = 3
Description: Cells were cultured on glass coverslips and treated similarly as mentioned above. After treatment, cells were subsequently washed and fixed with 4% paraformaldehyde in PBS for 15 min. […] Incubation with primary antibodies (respective dilutions in blocking buffer) was performed overnight at 4°C. Next day, coverslips were washed and incubated with respective secondary antibodies (respective dilutions in blocking buffer) for 1 h at RT. Removal of the secondary antibody solution was followed by washes with PBS (thrice) and distilled water (once) and coverslips were mounted on the slides using ImmuMount (ThermoFisher Scientific - Shandon EprediaTM, 9990412). […] Quantification of the number of autophagic compartments (Figure S6B) was done manually using a 10 μm^2 ROI grids, placed in the cytosolic region of the individual cells using the “rule of L” counting method. […] All images were processed and analyzed using Fiji ImageJ software. […] Distance from the plaque core (Figure 1B) was measured using the concentric circles plugin module. Fluorescence intensity of the green channel (Figure S3A-B), and the number of neurons positive for Aβ signals (Figure S3-D) were quantified using the processing module of Keyence software. […] Intensity of green and red channel for a particular ROI was calculated and ratios of the individual values were computed (Figure 6B and S7A). […]

[1] = tested on: CTSD and CTSE in SH-SY5Y cells; experiment: CTSD and CTSE activity assay with fluorogenic substrate; assay type: cell-based, human; conditions: Aβ 1 µM, 24 h, per µg total cellular protein, compared to control cells
Description: Cells were seeded in a 96-well plate (12000 cells/well, D1) and treated with different Aβ variants (primary cortical neurons, DIV14–500 nM, 4 h; SH-SY5Y cells, D3–1 μM, 24 h) in neurobasal, FCS-/PS- media. After the treatment, the supernatant was discarded, and cells were washed with PBS once. Cells were lysed by solubilizing the plasma membrane and intracellular membranes by adding 50 μL of 200 μg/mL digitonin in acetate buffer to the wells followed by incubation on ice for 15 min. Additionally, 50 μL of the Omnicathepsin D & E fluorogenic substrate (Enzo Life sciences, BML-P145) in sodium acetate buffer was added to the lysates in the wells for a final concentration of 30 μM of substrate and 10 mM DTT. Plate was incubated for 25 min at RT and the reaction was stopped by addition of 10 µl of ethanol. The relative amount of substrate cleavage in each well was computed using multiplate reader at λEx 380 nm and λEm 460 nm. Values were normalized and represented as fold-change with respect to control cells. Graphs in Figure 7G and S7F represent data from 3 independent experiments (n = 9).

Substance | Colocalization with LAMP2 (SH-SY5Y cells) | Activity of lysosomal CTSD and CTSE [1] | Accumulation in LC3-positive autophagosomal structures (SH-SY5Y cells)
amyloid-β phosphorylated at serine residue 26 [p-Ser26Aβ] | predominant colocalization | increased activity | –
amyloid-β phosphorylated at serine residue 8 [p-Ser8Aβ] | – | no significant effect | preferential accumulation
